Read-outs that look alike come from different tables or passages of the source. Where no end group is shown, it is not given here. [ ]: non-standard residue; d: D form. The star is where a group is joined. Biotin = O=C1N[C@H]2[C@H](CS[C@H]2CCCCC(=O)*)N1; pY = N[C@@H](Cc1ccc(OP(=O)(O)O)cc1)C(=O)O
Tests used:
[1] = tested on: phosphorylated peptide-specific monoclonal mouse IgG antibodies; conditions: three-antibody detection, six bead types
[2] = tested on: phosphorylated peptide-specific monoclonal mouse IgG antibodies; conditions: three-antibody detection
Text: After coupling, the particles were washed by using PBST. Then, all of the peptide-functionalized beads were combined into a test tube for assembly of microparticle array according to known prior art methods, such as LEAPS, and direct disposition assembly method previously described in Provisional Application Ser. No. 60/343,621, filed Dec. […] The assembled microparticle array is blocked by using 1% BSA in PBST. For immunodetection of phosphorylated peptides on the array, the chip is incubated with monoclonal antibodies specific for the phosphorylation modification. The incubation is carried out in a humid chamber for binding of the antibodies to the phosphorylated peptides. The unbound antibodies are washed away by using PBST. For the purpose of signal amplification, the chip is incubated with secondary antibodies specific for the primary monoclonal antibodies bound on the arrays. The signal may be further amplified by incubation of the chips with fluorescent-labeled antibodies specific for the secondary antibodies. After washing with PBST, the array is examined by using a fluorescent microscope according to known prior art methods, such as the READ assays.
The peptide-functionalized microparticles are assembled into a particle array. The chip was incubated with phosphorylated peptide-specific monoclonal mouse IgG antibodies followed by incubation with mouse IgG-specific secondary antibodies, and then Cy5-labeled third antibodies for detection using a fluorescent microscope. Fluorescence was detected by Cy5 signals. […] The error bars in FIG. 22 represent standard deviation of the respective mean intensities.

[3] = tested on: monoclonal antibodies specific for the phosphorylation modification; conditions: tyramide detection
Text: […]

Row | Substance | Cy5 signal intensity at 1000 ms integration [1] | Cy5 signal intensity at 1000 ms integration [2] | FITC signal intensity at 1000 ms integration [3]
1 | Biotin-KVEKIGEGTYGVVYK [Ty-1] | approximately 1000 units | approximately 1400 units | approximately 700 units
2 | Biotin-CEGPWLEEEEEA[pY]GWMDFK-Biotin [Peptide-P-2] | approximately 14,000 units | 15,500 units | 15,000 units
3 | Biotin-KVEKIGEGT[pY]GVVYK [Ty-P-1] | approximately 14,000 units | 15,000 units | 11,000 units
4 | Biotin-CRRLIEDAE[pY]AARGK [Peptide-P-3] | approximately 14,000 units | – | –
5 | Biotin-CKVEKIGEGT[pY]GVVYK [Peptide-P-1] | approximately 14,000 units | – | –

Reference: US7932022B2, “Dual-labeled molecular constructs for detection of biochemical reactions” (BioArray Solutions, Ltd., priority 2002, dated 2011)
